Measurements as given in US4831155A (priority 1984, dated 1989).
pIC50, pKi: −log10 of the molar value. Read-outs that look alike come from different tables or passages of the source.

What was measured:
[1] = target: T1, acetylcholinesterase originating from "Electrophorus electricus" (Electrophorus electricus, UniProt O42275)
male Swiss mice [2] = experiment: spontaneous locomotor activity in mice (two-part cage); type: in vivo
Description: (§1) In particular, with regard to this latter aspect, an evaluation was made of the effects of the substance on spontaneous locomotor activity, and of the antagonisms of the heptyl derivative towards the central stimulating effects of anticholinergic drugs (scopolamine). An evaluation was also made of the effects of the substance on the electrocorticographic activity and on the inhibition of cerebral acetylcholinesterase (AchE) "in vivo".
(§2) The experiments were conducted using male Swiss mice with a weight of about 30 g.
The test used for measuring the spontaneous locomotor activity was that employing a cage divided into two parts.

[3] = system: cerebral acetylcholinesterase (AchE); type: in vivo, mice
[4] = acute toxicity (lethal dose) in mice; type: in vivo; conditions: mouse, in vivo, injection, determined within two hours, read-out: lethal dose 50 (LD50)
Description: (§3) The activity of the this product was evaluated in terms of its toxicity (lethal dose: LD) and its behavioural effects.
as §2
(§4) The acute toxic effects of the heptyl derivative were also evaluated as a comparison with the effects of physostigmine. […] Compared with physostigmine, the lethal dose 50 of the heptyl derivative is about 60 times greater, the LD50 for physostigmine being 0.6 mg/kg. The LD50 values were determined within two hours from the injection. Beyond this time, no obvious effects were observable. The LD50 values of other derivatives according to the present invention, evaluated with the same method resulted as follows: […]

[5] = system: acetylcholinesterase (AchE); experiment: acetylcholinesterase (AChE) inhibition in the brain and serum after i.p. administration; type: in vivo, rats; conditions: n=4; for AChE inhibition, brain (M ± SE) / AChE inhibition, serum (M ± SE): Table I, 10 min, salicylate
Description: The acetylcholinesterase (AchE) inhibition in the brain and serum was tested for the heptyl derivative in comparison with physostigmine. Both physostigmine and heptyl derivative were used in form of salycilate and dissolved in distilled water with carbossimethyl cellulose sodium salt at 2%.

[6] = target: T1, acetylcholinesterase originating from "Electrophorus electricus"; experiment: biochemical
[7] = system: mice implanted with parietal electrodes; experiment: electrocorticographic activity; type: in vivo; conditions: 10 mg/kg, 15 minutes after administration
Description: as §1, §2
The […] was recorded by a Beckmann polygraph.

male Swiss mice [8] = experiment: antagonism towards the central stimulating effects of scopolamine; type: in vivo
Description: as §1, §2
At the central cholinergic antagonists exert a stimulating action on spontaneous activity, a study was carried out of the antagonism towards the stimulating effects of scopolamine (a typical anticholinergic drug which acts at the central level) by the heptyl derivative. […] These activities show the existence of antagonism towards the central effects of scopolamine, indicative of a central effect of the heptyl derivative.

male Swiss mice [9] = experiment: acute toxicity (lethal dose) in mice; type: in vivo
Description: as §3, §2, §4

[10] = Table II, i.p. equiactive doses: Phys. 0.2, Hept. 1.0 mg/Kg
[11] = bimolecular rate constant, value = ki × 10^-5
[12] = first order carbamylation rate constant
[13] = first order reactivation rate constant, value = k3 × 10^2

T1 sequence (O42275 24-633): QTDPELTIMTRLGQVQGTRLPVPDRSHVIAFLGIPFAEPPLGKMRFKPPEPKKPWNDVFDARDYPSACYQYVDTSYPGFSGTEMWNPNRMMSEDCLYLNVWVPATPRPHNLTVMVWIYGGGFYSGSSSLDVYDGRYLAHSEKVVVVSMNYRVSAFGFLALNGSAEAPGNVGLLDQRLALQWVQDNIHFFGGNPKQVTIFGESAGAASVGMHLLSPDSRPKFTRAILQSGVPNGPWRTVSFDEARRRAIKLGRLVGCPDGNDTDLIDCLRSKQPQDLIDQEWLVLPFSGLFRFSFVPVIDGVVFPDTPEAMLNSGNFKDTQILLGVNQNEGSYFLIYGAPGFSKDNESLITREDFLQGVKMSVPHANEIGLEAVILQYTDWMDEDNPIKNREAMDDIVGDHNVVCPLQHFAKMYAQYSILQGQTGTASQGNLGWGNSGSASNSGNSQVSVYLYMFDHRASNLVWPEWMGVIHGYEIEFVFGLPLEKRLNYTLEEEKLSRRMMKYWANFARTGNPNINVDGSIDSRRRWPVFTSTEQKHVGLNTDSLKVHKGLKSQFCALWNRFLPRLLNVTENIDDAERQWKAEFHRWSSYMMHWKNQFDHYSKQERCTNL

CNC(=O)Oc1ccc2c(c1)[C@]1(C)CCN(C)[C@@H]1N2C [Eserine, reference compound]
k2 (± S.E.) [1]: 8.8 ± 1.0
k3 × 10^2 (± S.E.) [1]: 5.4 ± 0.2
ki × 10^-5 (± S.E.) [1]: 26.6 ± 0.8
effect on spontaneous locomotor activity (analogous to depressing effect of heptyl derivative) (male Swiss mice [2]; doses between 0.1 and 0.3 mg/kg): An analogous effect
effect on coloration of cerebral tissues (AchE inhibition) ([3]; 0.4 and 0.5 mg/kg): no evident effect
LD50 at 2 h [4]: 0.6 mg/kg
AChE inhibition, brain (M ± SE) ([5]; 0.15 mg/kg i.p.): 39.18 ± 4.32%
% AChE Inhibition, brain, 60 minutes (M ± SE) [5, 10]: 12.47 ± 2.83%
% AChE Inhibition, brain, 120 minutes (M ± SE) [5, 10]: 3.28 ± 1.99%

CCNC(=O)Oc1ccc2c(c1)[C@]1(C)CCN(C)[C@@H]1N2C [Ethyl-]
ki × 10^-5 (± S.E.) [1, 11]: 2.3 ± 0.1
k2 (± S.E.) [1, 12]: 3.5 ± 1.1
k3 × 10^2 (± S.E.) [1, 13]: 2.5 ± 0.3
pIC50 [6]: 6.00
pKi [6]: 6.89

CCCCCCCCCCCNC(=O)Oc1ccc2c(c1)[C@]1(C)CCN(C)[C@@H]1N2C [Undecyl-, trimethyl-1,3a,8-hexahydro-1,2,3,3a,8,8a-pyrrol[2,3-b]indole-5(3aS, 8aR) undecylcarbamate]
ki × 10^-5 (± S.E.) [1, 11]: 0.8 ± 0.1
pIC50 [6]: 5.54

CCN(CC)C(=O)Oc1ccc2c(c1)[C@]1(C)CCN(C)[C@@H]1N2C [diethyl derivative, Pyrrolo [2,3-b]indol-5-ol,3,3a,8,8a-hexahydrol,3a,8-trimethyl-diethylcarbamate (ester), (3aS-cis)]
ki × 10^-5 (± S.E.) [1, 11]: 0.004
pIC50 [6]: 3.17
LD50 at 2 h [4]: 38 mg/kg

CN(C)C(=O)Oc1ccc2c(c1)[C@]1(C)CCN(C)[C@@H]1N2C [dimethyl derivative, Pyrrolo [2,3-b]indol-5-ol,3,3a,8,8a-hexahydro-1,3a,8-trimethyl-dimethylcarbamate (ester),(3aS-cis)]
ki × 10^-5 (± S.E.) [1, 11]: 0.2 ± 0.05
k2 (± S.E.) [1, 12]: 8.8 ± 3.3
k3 × 10^2 (± S.E.) [1, 13]: 8.5 ± 1.2
pIC50 [6]: 5.51
pKi [6]: 6.46
LD50 at 2 h [4]: 9 mg/kg

CCCCCCCNC(=O)Oc1ccc2c(c1)[C@]1(C)CCN(C)[C@@H]1N2C [heptyl derivative, trimethyl-1,3a,8-hexahydro-1,2,3,3a,8,8a-pyrrol[2,3-b]indole-5(3aS, 8aR) heptylcarbamate]
electrocorticographic amplitude [7]: an increase in its amplitude
electrocorticographic rate [7]: a slowing down of the electrocorticographic rate
ki × 10^-5 (± S.E.) [1, 11]: 2.8 ± 0.1
k2 (± S.E.) [1, 12]: 7.2 ± 3.6
k3 × 10^2 (± S.E.) [1, 13]: 0.71 ± 0.08
pIC50 [6]: 6.00
pKi [6]: 7.28
reduction in locomotor activity compared with the controls (male Swiss mice [2]; 5 mg/kg): 25%
influence on spontaneous locomotor activity (male Swiss mice [2]; between 0.1 mg/kg and 3 mg/kg): does not influence spontaneous activity
effect on spontaneous locomotor activity (male Swiss mice [2]; doses higher than 3 mg/kg): a depressing effect is observed
effect on coloration of cerebral tissues (AchE inhibition) ([3]; 20 mg/kg, injected 15 minutes before sacrifice): evident diminution in the coloration of the cerebral tissues
duration of effect on coloration of cerebral tissues ([3]; 30 mg/kg): remained for more than one hour
effect on coloration of cerebral tissues (AchE inhibition) ([3]; 30 mg/kg, compared with 20 mg/kg): even more marked
antagonism of scopolamine-induced stimulation (male Swiss mice [8]; 3 mg/kg against scopolamine 1 mg/kg): restored the activity to the control values
effect of the dose per se (male Swiss mice [8]; 3 mg/kg alone): ineffective
LD50 at 2 h [4]: 35 mg/kg
lethal dose 100 (LD100) (male Swiss mice [9]; injection): 45 mg/kg
lethal dose 50 compared with physostigmine (male Swiss mice [9]; ratio to LD50 of physostigmine): about 60 times greater
AChE inhibition, brain (M ± SE) ([5]; 0.50 mg/kg i.p.): 25.55 ± 11.64%
AChE inhibition, serum (M ± SE) ([5]; 0.50 mg/kg i.p.): 20.85 ± 5.64%
AChE inhibition, brain (M ± SE) ([5]; 1.00 mg/kg i.p.): 50.00 ± 1.32%
AChE inhibition, serum (M ± SE) ([5]; 1.00 mg/kg i.p.): 59.40 ± 1.99%
AChE inhibition, brain (M ± SE) ([5]; 2.00 mg/kg i.p.): 53.62 ± 10.51%
AChE inhibition, serum (M ± SE) ([5]; 2.00 mg/kg i.p.): 67.42 ± 4.29%
AChE inhibition, brain (M ± SE) ([5]; 4.00 mg/kg i.p.): 72.35 ± 5.92%
AChE inhibition, serum (M ± SE) ([5]; 4.00 mg/kg i.p.): 79.42 ± 2.89%
% AChE Inhibition, brain, 10 minutes (M ± SE) [5, 10]: 50.00 ± 1.32%
% AChE Inhibition, brain, 60 minutes (M ± SE) [5, 10]: 28.46 ± 9.56%
% AChE Inhibition, brain, 120 minutes (M ± SE) [5, 10]: 22.45± 2.54%
% AChE Inhibition, serum, 10 minutes (M ± SE) [5, 10]: 59.40 ± 1.99%
% AChE Inhibition, serum, 60 minutes (M ± SE) [5, 10]: 41.15 ± 4.29%
% AChE Inhibition, serum, 120 minutes (M ± SE) [5, 10]: 21.53 ± 2.31%

CCCNC(=O)Oc1ccc2c(c1)[C@]1(C)CCN(C)[C@@H]1N2C [n.Propyl-, trimethyl-1,3a,8-hexahydro-1,2,3a,8,8a-pyrrol[2,3-b]indole-5(3aS, 8aR) propylcarbamate]
ki × 10^-5 (± S.E.) [1, 11]: 0.9 ± 0.1
pIC50 [6]: 5.60

CCCCNC(=O)Oc1ccc2c(c1)[C@]1(C)CCN(C)[C@@H]1N2C [n.butyl derivative]
ki × 10^-5 (± S.E.) [1, 11]: 2.0 ± 0.1
k2 (± S.E.) [1, 12]: 6.7 ± 3.5
k3 × 10^2 (± S.E.) [1, 13]: 0.45 ± 0.14
pIC50 [6]: 5.46
pKi [6]: 7.59
LD50 at 2 h [4]: 6 mg/kg

CCCCCCCCCNC(=O)Oc1ccc2c(c1)[C@]1(C)CCN(C)[C@@H]1N2C [n.nonyl derivative]
ki × 10^-5 (± S.E.) [1, 11]: 1.5 ± 0.1
pIC50 [6]: 5.82
LD50 at 2 h [4]: 50 mg/kg

CN1[C@@H]2C[C@@H](OC(=O)[C@H](CO)c3ccccc3)C[C@H]1[C@@H]1O[C@@H]12 [scopolamine, reference compound]
increase in basic locomotor activity (male Swiss mice [8]; scopolamine 1 mg/kg): 100%
